Results reported in publication PMC11251504 (Hypertension (Dallas, Tex. : 1979), 2024).
“Also recorded” adds a separate entry of the source. One block for each compound: values may come before it. Peptide text beside a SMILES is read from it.

Key:
[1] = Metabolism of Ang-(1-12) in 1:10 diluted human plasma with and without enzyme inhibitors; conditions: 37 °C; for Angiotensin metabolite generated from Ang-(1-12), aliskiren + lisinopril / Angiotensin metabolite generated from Ang-(1-12), aliskiren: 60 min after adding 1000 ng/mL Ang-(1-12), t=0 level subtracted; for Angiotensin metabolite generated from Ang-(1-12), aliskiren + lisinopril: aliskiren 10 µmol/L + lisinopril 10 µmol/L; for Angiotensin metabolite generated from Ang-(1-12), aliskiren: aliskiren 10 µmol/L
Method: Heparin plasma was obtained from 3 healthy volunteers (1 woman, 2 men; age range 30–40 years). The plasma was incubated for 1 hour at 37 °C, in the absence or presence of the renin inhibitor aliskiren (10 µmol/L), the ACE inhibitor lisinopril (10 µmol/L), the chymase inhibitor chymostatin (10 µmol/L), the aminopeptidase A inhibitor amastatin (10 µmol/L), the neprilysin inhibitor sacubitrilat (LBQ-657, 10 µmol/L), or the prolyl oligopeptidase inhibitor ZPP (20 µmol/L). All inhibitors were from Sigma Aldrich, St. Louis, MO. Next, the plasma was diluted 1:10 in PBS (t=0) and incubated again for 1 hour at 37 °C (t=60) with 1000 ng/mL Ang-(1-12; Sigma Aldrich). Samples at 0 and 60 minutes were collected in 6 mol/L guanidine hydrochloride, and angiotensins were quantified by LC-MS/MS.
Human ([sequence], molecular weight: 1508.8 Da) and murine ([sequence], molecular weight: 1572.8 Da) Ang-(1-12) were quantified by LC-MS/MS. […] The powder was dissolved by cooled sonication using a 2-mm microtip (Sonics and Materials, Newton, NJ). Stable isotope-labeled IS for human and murine Ang-(1-12)–containing isoleucine C^13/N^15 (mass +7) at [Ile5] were spiked to tissue homogenates and stabilized blood samples at 1000 pg/mL for internal standardization. The samples then underwent C18-based solid-phase extraction for purification before being subjected to liquid chromatography using a reversed-phase analytical column operating in line with a Xevo TQ-S triple quadruple mass spectrometer (Waters). Two independent MS/MS transitions based on the mass-to-charge ratio of the parent (+3) and fragment ions (+2) were recorded for each analyte and IS simultaneously. Signals from IS were used to correct for peptide recovery in the sample preparation procedure and matrix signal suppression for each analyte in each individual sample.
Data are provided as individual values and means. Statistical analysis was done by the Student’s t test or by ANOVA, followed by post hoc correction according to Dunnett.

[2] = Disappearance of Ang-(1-12) added to nonstabilized human plasma incubated at 37 °C; type: in vitro ADME; conditions: LC-MS/MS
Method: MS/MS transitions were as follows:
Signals for all 4 analytes were recorded simultaneously in all samples to show the specificity of the gained signals. […] The lower limit of quantification was 2 fmol/mL in blood and 10 fmol/g in tissue (ie, 3 pg/mL and 15 pg/g, respectively). Ang I, Ang II, Ang III, Ang IV, Ang-(1-7), and Ang-(1-5) were determined by LC-MS/MS as described before.[27],[28]
A rapid collection of blood in 6 mol/L guanidine hydrochloride was chosen for blood collection since this allowed a full recovery of spiked Ang-(1-12; Figure 1A). Importantly, Ang-(1-12) remained undetectable when incubating nonstabilized plasma at 37 °C (Figure 1B), while Ang-(1-12) added to nonstabilized human plasma disappeared almost completely (>80%) within 10 minutes during incubation at 37 °C (Figure 1B). Stabilized human blood samples contained Ang I and Ang II, but Ang-(1-12) was not detectable (Figure 2C). Plasma obtained from the same patients contained normal renin and angiotensinogen levels (Figure 2A and 2B).[29],[30]

[3] = Recovery of spiked Ang-(1-12) from blood collected in 6 mol/L guanidine hydrochloride; type: in vitro ADME; conditions: human blood collected in 6 mol/L guanidine hydrochloride; LC-MS/MS with stable isotope-labeled IS
[4] = test system: neprilysin; assay: renal cortical membranes; conditions: cited from earlier work
[5] = test system: chymase; assay: intracellular, eg, at tissue sites; conditions: cited from earlier work
[6] = test system: angiotensin-converting enzyme (ACE); assay: extracellular, eg, in blood; conditions: cited from earlier work
[7] = Heparin plasma from 3 healthy volunteers, diluted 1:10 in PBS; conditions: human, 37 °C, up to 60 minutes
[8] = 1:10 diluted human plasma, LC-MS/MS

- Angiotensin metabolite generated from Ang-(1-12), aliskiren + lisinopril [1, 8]: < 2 pg/mL
- Angiotensin metabolite generated from Ang-(1-12), aliskiren [1, 8]: 983 pg/mL
Compound: CC[C@H](C)[C@H](NC(=O)[C@H](Cc1ccc(O)cc1)NC(=O)[C@@H](NC(=O)[C@H](CCCNC(=N)N)NC(=O)[C@@H](N)CC(=O)O)C(C)C)C(=O)O [Ang-(1-5)] (H-DRVYI-OH)

- Reduction in metabolite formation from Ang-(1-12) by ACE inhibition ([1]; 1:10 diluted human plasma, 60 min, aliskiren + lisinopril vs aliskiren): 50%
- Angiotensin metabolite generated from Ang-(1-12), aliskiren + lisinopril [1, 8]: 946 pg/mL
- Angiotensin metabolite generated from Ang-(1-12), aliskiren [1, 8]: 2238 pg/mL
Compound: CC[C@H](C)[C@H](NC(=O)[C@H](Cc1ccc(O)cc1)NC(=O)[C@@H](NC(=O)[C@H](CCCNC(=N)N)NC(=O)[C@@H](N)CC(=O)O)C(C)C)C(=O)N[C@@H](Cc1c[nH]cn1)C(=O)N1CCC[C@H]1C(=O)O [Ang-(1-7)]

Compound: CC[C@H](C)[C@H](NC(=O)[C@@H](NC(=O)[C@H](CC(C)C)NC(=O)[C@H](Cc1c[nH]cn1)NC(=O)[C@H](Cc1ccccc1)NC(=O)[C@@H]1CCCN1C(=O)[C@H](Cc1c[nH]cn1)NC(=O)[C@@H](NC(=O)[C@H](Cc1ccc(O)cc1)NC(=O)[C@@H](NC(=O)[C@H](CCCNC(=N)N)NC(=O)[C@@H](N)CC(=O)O)C(C)C)[C@@H](C)CC)C(C)C)C(=O)O [Ang-(1-12), Angiotensin-(1-12)] (H-DRVYIHPFHLVI-OH)
- Fraction of added Ang-(1-12) that disappeared within 10 minutes ([2]; 10 minutes): > 80%
- metabolised at 10 min ([2]; 10 minutes, read-out: Fraction of added Ang-(1-12) that disappeared within 10 minutes): ~80%
- Time within which added angiotensin-(1-12) disappeared [2]: ≤ 10 min
- Recovery of spiked Ang-(1-12) [3]: full recovery
- Contribution of chymase to Ang-(1-12) metabolism ([1]; 1:10 diluted human plasma, 60 min, 1000 ng/mL, chymase inhibitor chymostatin 10 µmol/L, LC-MS/MS, n = 3): did not contribute to its metabolism
- Contribution of prolyl oligopeptidase to Ang-(1-12) metabolism ([1]; 1:10 diluted human plasma, 60 min, 1000 ng/mL, prolyl oligopeptidase inhibitor ZPP 20 µmol/L, LC-MS/MS, n = 3): did not contribute to its metabolism
- Disappearance of Ang-(1-12) in the presence of aliskiren ([1]; 1:10 diluted human plasma, 60 min, 1000 ng/mL, renin inhibitor aliskiren 10 µmol/L, LC-MS/MS, n = 3): unaltered
- Change in Ang-(1-12) recovery after inhibiting neprilysin ([1]; 1:10 diluted human plasma, 60 min, 1000 ng/mL, sacubitrilat (LBQ-657) 10 µmol/L, LC-MS/MS, n = 3): did not observe a change
- Change of Ang-(1-12) half-life on addition of lisinopril ([1]; 1:10 diluted human plasma, 60 min, 1000 ng/mL, subsequent addition of ACE inhibitor lisinopril 10 µmol/L, LC-MS/MS, n = 3): doubling the half-life
- Change of Ang-(1-12) half-life on addition of amastatin ([1]; 1:10 diluted human plasma, 60 min, 1000 ng/mL, subsequent addition of aminopeptidase A inhibitor amastatin 10 µmol/L, LC-MS/MS, n = 3): tripling the half-life
- Half-life of Ang-(1-12) corresponding to undiluted plasma ([1]; extrapolated from 1:10 diluted human plasma): < 3 min

Compound: DRVYIHPFHLVI
- fragment found [4]: Ang-(1-7)
- fragment found [5]: Ang II
- fragment found [6]: Ang I; also recorded: Ang II
- fragment found [7]: Ang I; also recorded: Ang II; also recorded: Ang-(1-5)

Compound: angiotensin II (DRVYIHPF; Angiotensin-2; UniProt P01019 25-32, looked up) [Ang II]
- Angiotensin metabolite generated from Ang-(1-12), aliskiren + lisinopril [1, 8]: 417 pg/mL
- Angiotensin metabolite generated from Ang-(1-12), aliskiren [1, 8]: 7239 pg/mL
